The values below come from PubChem BioAssay AID1996.

Converted amounts (≈) assume the structure as drawn. Bounds are passed on as bounds.

For this data set the following is noted: buffer; pH 7.4; 200.0 µM.
`CC1(C)CC(=O)C=C(NCCc2c[nH]c3ccccc23)C1` came in with a solubility (kinetic) greater than 42.4 µg/mL.

Compound `Cc1ccsc1C(=O)N1CC=C(c2ccccc2)CC1` showed a solubility (kinetic) greater than 42.5 µg/mL.

Regarding `CN(CC(=O)Nc1sccc1C(N)=O)S(=O)(=O)c1ccc(Cl)cc1`, the solubility (kinetic) amounted to 8.7 µg/mL (≈ 22.4 µM).

Regarding `CN(CC(O)Cn1cnc2c1c(=O)n(C)c(=O)n2C)c1ccccc1` (configuration not stated), the solubility (kinetic) was greater than 51.5 µg/mL.

Compound `COc1ccccc1-n1c(CCC(=O)O)ccc1-c1ccccc1` showed a kinetic solubility greater than 48.2 µg/mL.

As to `COc1ccccc1/C=C/c1nc(C#N)c(N(C)C)o1`, the solubility (kinetic) is 0.4 µg/mL (≈ 1.49 µM).

In turn, `Cc1snc(SCc2ccc(F)cc2)c1C#N` showed a solubility (kinetic) of 3 µg/mL (≈ 11.3 µM).

With `CSc1ncc(Cl)c(C(=O)Nc2ccc(NC(C)=O)cc2)n1`, the solubility (kinetic) came to 18.6 µg/mL (≈ 55.2 µM).

The compound `O=C1CCCc2ccccc2N1Cc1ccc(F)cc1` displayed a kinetic solubility of 30 µg/mL (≈ 111 µM).

Compound `N/C(=N\OC(=O)c1ccc(Br)cc1)c1cccc([N+](=O)[O-])c1` returned a kinetic solubility of 0.8 µg/mL (≈ 2.2 µM).

As to `CC1CN(CCC(=O)Nc2ccccc2F)CC(C)O1` (configuration not stated), the solubility (kinetic) is greater than 42.1 µg/mL.

In turn, `O=C(O)C1C2CCC(C2)C1C(=O)Nc1ccccc1` (configuration not stated) showed a kinetic solubility of 38.8 µg/mL (≈ 150 µM).

On to `CCc1ccc(NC(=O)Nc2ccc3c(c2)CCC3)cc1`, for which the solubility (kinetic) was less than 0.3 µg/mL.

Compound `CCOc1ccc(CN(C)C(C)C(=O)NCc2ccccc2)cc1` (configuration not stated) came in with a kinetic solubility greater than 49 µg/mL.

Compound `CC(=O)c1ccc(OCC(=O)Nc2ccc3nc(C)sc3c2)cc1` came in with a solubility (kinetic) of 1.4 µg/mL (≈ 4.11 µM).

`Cc1cc(NC(=O)COC(=O)C2CSC3(C)CCC(=O)N23)ccc1Br` (configuration not stated) displayed a kinetic solubility greater than 64.1 µg/mL.

With `CC1CN(C(=S)Nc2ccc(Br)cc2)CC(C)O1` (configuration not stated), the kinetic solubility is 48.5 µg/mL (≈ 147 µM).

With `S=C(NC1CCCCC1)N1CCn2cccc2C1c1ccncc1` (configuration not stated), the kinetic solubility stood at 36.1 µg/mL (≈ 106 µM).

Take `COc1ccc(Cl)cc1C(=O)Nc1cccnc1Cl`: the solubility (kinetic) is less than 0.3 µg/mL.

For the compound `CCN(CC(=O)NC1CC1)S(=O)(=O)c1ccc(OC)cc1`, the kinetic solubility is greater than 46.9 µg/mL.

`NS(=O)(=O)c1ccc(CCNS(=O)(=O)c2ccc(Cl)s2)cc1` displayed a solubility (kinetic) greater than 57.1 µg/mL.

Regarding `O=C(CNC(=O)C1CCCCC1)NCc1ccco1`, the kinetic solubility is greater than 39.6 µg/mL.

In the case of `CN[C@H](CC(=O)O)C(=O)O`, the kinetic solubility was greater than 22.1 µg/mL.

`Cn1c(Cc2ccccc2)nnc1SCC(=O)NCCc1ccccc1` gave a solubility (kinetic) greater than 55 µg/mL.

In turn, `CC(C)c1onc(C(=O)N2CCN(c3ccccc3)CC2)c1[N+](=O)[O-]` returned a kinetic solubility of 1.9 µg/mL (≈ 5.52 µM).

Compound `CN(c1ccccc1)S(=O)(=O)c1ccc(C(=O)N2CCN(c3ccccc3F)CC2)cc1` had a kinetic solubility of 3.6 µg/mL (≈ 7.94 µM).

In the case of `Cc1nc2c(=O)n(-c3ccc(F)cc3F)nc(C)c2s1`, the solubility (kinetic) was greater than 44 µg/mL.

In turn, `O=C(OCC(=O)N1CCc2ccccc2C1)c1ccc(F)cc1Cl` displayed a solubility (kinetic) of 37.2 µg/mL (≈ 107 µM).

In turn, `C=CCC1(C#N)C(=S)NC(C)=C(C(=O)OCC)C1c1ccccc1` (configuration not stated) returned a solubility (kinetic) greater than 51.1 µg/mL.

`COC(=O)c1[nH]c2ccccc2c1NC(=O)C(C)N1CCOCC1` (configuration not stated): the kinetic solubility was greater than 49.7 µg/mL.

As to `COc1ccc(S(=O)(=O)N2CCc3ccccc3C2)cc1`, the solubility (kinetic) was determined as 0.7 µg/mL (≈ 2.31 µM).

As to `CCOc1ccc(NC(=O)COC(=O)Cn2cnc3ccccc32)cc1`, the kinetic solubility is 19.9 µg/mL (≈ 56.3 µM).

`O=C(Nc1ccccc1C(F)(F)F)C1CCCC1` registered a kinetic solubility of 30.4 µg/mL (≈ 118 µM).

The compound `Cn1cc([N+](=O)[O-])c(C(=O)NCC(=O)O)n1` displayed a kinetic solubility greater than 34.2 µg/mL.

`O=C(COC(=O)c1ccccc1OCc1ccccc1Cl)NC1CCS(=O)(=O)C1` (configuration not stated) registered a kinetic solubility greater than 65.7 µg/mL.

The compound `CN(C)/C=N/c1ncc(C(=O)c2ccc(Cl)cc2Cl)s1` returned a kinetic solubility of 41.6 µg/mL (≈ 127 µM).

In the case of `O=C(c1cccs1)N1CCN(c2cccc(Cl)c2)CC1`, the kinetic solubility came out at 26.3 µg/mL (≈ 85.7 µM).

`Cc1ccc2nc(Nc3ccccc3)c(C=O)c(=O)n2c1` had a kinetic solubility of 1.5 µg/mL (≈ 5.37 µM).

`Cc1cccc(S(=O)(=O)NC2CCCCCCC2)c1` returned a solubility (kinetic) of 25.2 µg/mL (≈ 89.5 µM).

Take `O=C(COC(=O)c1cnc(Cl)c(Cl)c1)Nc1cccc(S(=O)(=O)N2CCOCC2)c1`: the solubility (kinetic) was 38.9 µg/mL (≈ 82 µM).

Compound `COc1ccc(COC(=O)CCc2c[nH]c3ccccc23)cc1F` returned a kinetic solubility of 7.7 µg/mL (≈ 23.5 µM).

For `Cc1noc(C)c1S(=O)(=O)N1CCCC1C(=O)O` (configuration not stated), the kinetic solubility is greater than 41.1 µg/mL.

Compound `CC(C)Cc1ccc(/C=C/C(=O)N2CCCCC2)cc1` gave a solubility (kinetic) of 11.6 µg/mL (≈ 42.7 µM).

Compound `CC(=O)N(Cc1cc(=O)[nH]c2ccccc12)c1ccc(C)cc1C` showed a solubility (kinetic) greater than 48.1 µg/mL.

`COCCNC(=O)CN1C(=O)c2cccc3cccc1c23` yielded a solubility (kinetic) greater than 42.6 µg/mL.

`O=C(Oc1ccccc1)N1CCCC1`: the solubility (kinetic) is 24.8 µg/mL (≈ 130 µM).

In turn, `CCN(CC)C(=O)COc1c(-c2ccco2)oc2ccccc2c1=O` came in with a solubility (kinetic) greater than 51.2 µg/mL.

As to `CC(C)Oc1ccccc1Cn1c(=O)oc2ccccc21`, the solubility (kinetic) came out at 9 µg/mL (≈ 31.8 µM).

With `Cc1ccc(C)c(S(=O)(=O)NCc2ccc3c(c2)OCO3)c1`, the kinetic solubility came to 47.7 µg/mL (≈ 149 µM).

Consider `C=COC(=O)c1sc2nc(C)cc(C)c2c1N`, for which the kinetic solubility amounted to 0.5 µg/mL (≈ 2.01 µM).

`CNc1nc(NCc2ccccc2)nc(N)c1[N+](=O)[O-]` had a solubility (kinetic) of 2.8 µg/mL (≈ 10.2 µM).

Compound `CCCCc1ccc(S(=O)(=O)NC2CCS(=O)(=O)C2)cc1` (configuration not stated) came in with a kinetic solubility of 47.9 µg/mL (≈ 145 µM).
